In test [1] the target is T1, Serine/threonine-protein kinase Chk1 (Homo sapiens) (UniProt O14757).
T1 sequence (whole entry): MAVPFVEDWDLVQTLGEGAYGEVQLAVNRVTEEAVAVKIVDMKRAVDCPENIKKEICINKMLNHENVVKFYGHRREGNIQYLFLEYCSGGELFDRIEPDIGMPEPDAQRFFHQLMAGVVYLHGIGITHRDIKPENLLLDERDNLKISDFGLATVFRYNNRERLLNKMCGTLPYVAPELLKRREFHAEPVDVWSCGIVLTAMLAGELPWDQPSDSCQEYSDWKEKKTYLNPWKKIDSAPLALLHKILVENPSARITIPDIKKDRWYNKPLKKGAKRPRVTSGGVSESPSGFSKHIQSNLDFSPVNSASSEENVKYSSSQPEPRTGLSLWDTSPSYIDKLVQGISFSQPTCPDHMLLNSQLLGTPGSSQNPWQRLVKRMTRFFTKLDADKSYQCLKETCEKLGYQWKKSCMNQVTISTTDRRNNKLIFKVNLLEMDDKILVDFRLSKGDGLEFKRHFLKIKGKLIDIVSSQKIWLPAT
The test is described as follows: Inhibition of human CHK1 at 18.6 nM by HotSpot assay relative to control.

Test [2] deals with Casein kinase I isoform gamma-2 (Homo sapiens) (UniProt P78368). The experiment in a line: Inhibition of human CK1g2 at 18.6 nM by HotSpot assay relative to control.
In test [3] the target is Wee1-like protein kinase (Homo sapiens) (UniProt P30291). The test is described as follows: Inhibition of human WEE1 at 18.6 nM by HotSpot assay relative to control.
The target of test [4] is Platelet-derived growth factor receptor beta (Homo sapiens) (UniProt P09619). The test is described as follows: Inhibition of human PDGFRb at 500 nM by HotSpot assay relative to control.
Test [5] concerns the target Casein kinase II subunit alpha' (Homo sapiens) (UniProt P19784). The experiment in a line: Inhibition of human CK2a2 at 1.82 nM by HotSpot assay relative to control.
In test [6] the target is T2, Dual specificity tyrosine-phosphorylation-regulated kinase 3 (Homo sapiens) (UniProt O43781).
T2 sequence (whole entry): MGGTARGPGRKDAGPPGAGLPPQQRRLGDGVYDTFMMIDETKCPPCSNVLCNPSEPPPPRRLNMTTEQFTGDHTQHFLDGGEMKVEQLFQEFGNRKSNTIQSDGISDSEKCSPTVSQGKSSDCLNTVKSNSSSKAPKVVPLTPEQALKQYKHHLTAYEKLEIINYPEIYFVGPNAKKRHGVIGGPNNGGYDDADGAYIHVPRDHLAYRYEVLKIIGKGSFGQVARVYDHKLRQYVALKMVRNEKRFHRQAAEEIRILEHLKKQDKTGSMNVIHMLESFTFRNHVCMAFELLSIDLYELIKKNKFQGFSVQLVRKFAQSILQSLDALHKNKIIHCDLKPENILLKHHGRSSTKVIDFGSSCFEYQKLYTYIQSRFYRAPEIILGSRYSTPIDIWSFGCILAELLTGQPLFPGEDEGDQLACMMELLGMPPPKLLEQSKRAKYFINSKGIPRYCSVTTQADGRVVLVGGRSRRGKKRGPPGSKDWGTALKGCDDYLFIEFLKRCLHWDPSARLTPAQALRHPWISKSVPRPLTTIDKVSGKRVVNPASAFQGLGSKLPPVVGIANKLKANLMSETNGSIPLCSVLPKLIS
The test is described as follows: Inhibition of human DYRK3 at 1.82 nM by HotSpot assay relative to control.

Test [7] addresses Ephrin type-A receptor 5 (Homo sapiens) (UniProt P54756). The test is described as follows: Inhibition of human EPHA5 at 1.82 nM by HotSpot assay relative to control.
Test [8] concerns the target Ephrin type-A receptor 7 (Homo sapiens) (UniProt Q15375). The experiment in a line: Inhibition of human EPHA7 at 1.82 nM by HotSpot assay relative to control.
The target in test [9] is Vascular endothelial growth factor receptor 3 (Homo sapiens) (UniProt P35916). The test is described as follows: Inhibition of human FLT4 at 1.82 nM by HotSpot assay relative to control.
In test [10] the target is Protein kinase C beta type (Homo sapiens) (UniProt P05771). The test is described as follows: Inhibition of human PKCb1 at 1.82 nM by HotSpot assay relative to control.
Test [11] has as its target STE20-like serine/threonine-protein kinase (Homo sapiens) (UniProt Q9H2G2). The experiment in a line: Inhibition of human STK2 at 1.82 nM by HotSpot assay relative to control.
In test [12] the target is T3, Inhibitor of nuclear factor kappa-B kinase subunit beta (Homo sapiens) (UniProt O14920).
T3 sequence (whole entry): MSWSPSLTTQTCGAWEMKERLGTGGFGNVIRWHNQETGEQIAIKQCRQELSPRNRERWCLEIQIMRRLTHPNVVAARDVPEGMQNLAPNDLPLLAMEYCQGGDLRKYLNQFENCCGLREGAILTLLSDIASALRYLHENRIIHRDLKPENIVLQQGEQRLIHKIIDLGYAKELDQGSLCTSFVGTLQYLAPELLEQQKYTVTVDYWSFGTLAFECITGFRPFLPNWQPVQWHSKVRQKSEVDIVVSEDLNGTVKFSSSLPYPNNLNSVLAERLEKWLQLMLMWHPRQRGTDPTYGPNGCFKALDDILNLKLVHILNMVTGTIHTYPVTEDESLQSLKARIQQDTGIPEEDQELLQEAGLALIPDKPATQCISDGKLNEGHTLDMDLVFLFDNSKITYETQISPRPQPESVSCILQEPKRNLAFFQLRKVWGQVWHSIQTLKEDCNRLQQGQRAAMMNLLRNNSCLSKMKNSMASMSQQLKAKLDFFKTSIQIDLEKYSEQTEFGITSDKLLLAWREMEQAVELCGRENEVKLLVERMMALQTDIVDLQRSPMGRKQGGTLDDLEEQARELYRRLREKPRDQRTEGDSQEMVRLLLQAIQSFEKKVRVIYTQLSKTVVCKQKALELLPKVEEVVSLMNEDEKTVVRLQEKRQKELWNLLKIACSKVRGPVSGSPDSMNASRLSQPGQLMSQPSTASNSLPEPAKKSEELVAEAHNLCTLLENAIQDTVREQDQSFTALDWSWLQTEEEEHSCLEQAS
The settings on record: dose 1.82 nM.
Description: Inhibition of human IKKb at 1.82 nM by HotSpot assay relative to control

The results in this text go back to ChEMBL document CHEMBL5653615 (J Biol Chem, 2013).

Each structure is given as a SMILES string.

Chain of Wee1-like protein kinase (Homo sapiens) (P30291 whole entry, looked up): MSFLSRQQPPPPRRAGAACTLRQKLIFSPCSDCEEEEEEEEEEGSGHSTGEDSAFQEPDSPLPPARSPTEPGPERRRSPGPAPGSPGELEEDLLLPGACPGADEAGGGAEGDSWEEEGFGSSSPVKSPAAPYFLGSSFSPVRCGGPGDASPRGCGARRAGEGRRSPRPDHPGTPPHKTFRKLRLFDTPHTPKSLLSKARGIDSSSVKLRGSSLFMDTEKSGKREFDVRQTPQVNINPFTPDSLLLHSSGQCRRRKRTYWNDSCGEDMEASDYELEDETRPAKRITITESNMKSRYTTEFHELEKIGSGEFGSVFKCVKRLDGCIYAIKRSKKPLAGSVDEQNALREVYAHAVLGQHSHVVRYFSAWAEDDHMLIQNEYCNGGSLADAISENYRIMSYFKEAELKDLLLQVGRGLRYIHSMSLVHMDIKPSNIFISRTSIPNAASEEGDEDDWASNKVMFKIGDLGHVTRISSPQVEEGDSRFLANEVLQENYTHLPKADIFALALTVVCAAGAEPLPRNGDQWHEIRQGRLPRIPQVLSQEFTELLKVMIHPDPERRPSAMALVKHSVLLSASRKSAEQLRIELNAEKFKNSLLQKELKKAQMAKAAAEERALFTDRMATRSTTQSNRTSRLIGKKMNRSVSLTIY
Chain of Platelet-derived growth factor receptor beta (Homo sapiens) (P09619 whole entry): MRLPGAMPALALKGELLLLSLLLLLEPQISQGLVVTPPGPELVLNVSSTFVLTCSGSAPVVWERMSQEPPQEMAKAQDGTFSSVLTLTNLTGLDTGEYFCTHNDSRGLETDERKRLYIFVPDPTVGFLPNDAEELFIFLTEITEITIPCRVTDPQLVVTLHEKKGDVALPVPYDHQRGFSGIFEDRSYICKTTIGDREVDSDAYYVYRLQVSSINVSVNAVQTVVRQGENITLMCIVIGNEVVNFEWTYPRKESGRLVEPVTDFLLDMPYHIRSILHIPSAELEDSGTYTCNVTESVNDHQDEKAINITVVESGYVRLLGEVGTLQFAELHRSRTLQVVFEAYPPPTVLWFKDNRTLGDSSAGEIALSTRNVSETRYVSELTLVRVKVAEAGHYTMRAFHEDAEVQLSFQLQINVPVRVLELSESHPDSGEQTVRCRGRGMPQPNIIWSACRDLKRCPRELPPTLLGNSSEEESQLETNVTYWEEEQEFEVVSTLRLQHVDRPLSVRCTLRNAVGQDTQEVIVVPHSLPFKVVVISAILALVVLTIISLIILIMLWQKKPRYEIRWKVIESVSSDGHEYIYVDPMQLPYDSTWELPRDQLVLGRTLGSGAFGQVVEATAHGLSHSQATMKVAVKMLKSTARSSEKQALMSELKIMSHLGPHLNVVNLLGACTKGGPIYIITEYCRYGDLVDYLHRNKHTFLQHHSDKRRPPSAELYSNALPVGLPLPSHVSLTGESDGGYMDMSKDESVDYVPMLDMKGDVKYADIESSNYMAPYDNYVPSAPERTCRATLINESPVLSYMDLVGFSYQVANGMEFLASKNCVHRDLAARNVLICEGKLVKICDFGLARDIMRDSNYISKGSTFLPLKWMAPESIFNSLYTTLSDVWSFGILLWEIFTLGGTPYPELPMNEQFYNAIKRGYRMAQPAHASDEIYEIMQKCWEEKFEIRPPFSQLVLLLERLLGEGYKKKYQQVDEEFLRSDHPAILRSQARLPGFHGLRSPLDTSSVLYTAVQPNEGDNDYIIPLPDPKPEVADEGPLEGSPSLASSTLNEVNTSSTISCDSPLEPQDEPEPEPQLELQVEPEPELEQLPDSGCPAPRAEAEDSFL
Chain of Casein kinase I isoform gamma-2 (Homo sapiens) (P78368 whole entry, looked up, canonical isoform): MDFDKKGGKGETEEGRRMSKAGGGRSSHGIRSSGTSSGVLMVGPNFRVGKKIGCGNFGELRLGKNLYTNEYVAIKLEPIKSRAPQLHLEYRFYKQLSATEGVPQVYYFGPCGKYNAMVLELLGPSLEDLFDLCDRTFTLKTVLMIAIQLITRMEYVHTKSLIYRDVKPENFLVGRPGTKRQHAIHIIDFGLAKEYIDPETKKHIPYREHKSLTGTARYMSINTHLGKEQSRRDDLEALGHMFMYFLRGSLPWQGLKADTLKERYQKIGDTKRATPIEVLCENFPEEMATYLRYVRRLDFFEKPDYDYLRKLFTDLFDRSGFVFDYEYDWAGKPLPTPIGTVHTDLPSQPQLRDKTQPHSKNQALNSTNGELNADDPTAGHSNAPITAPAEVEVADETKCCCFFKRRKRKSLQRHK
Chain of Casein kinase II subunit alpha' (Homo sapiens) (P19784 whole entry, looked up): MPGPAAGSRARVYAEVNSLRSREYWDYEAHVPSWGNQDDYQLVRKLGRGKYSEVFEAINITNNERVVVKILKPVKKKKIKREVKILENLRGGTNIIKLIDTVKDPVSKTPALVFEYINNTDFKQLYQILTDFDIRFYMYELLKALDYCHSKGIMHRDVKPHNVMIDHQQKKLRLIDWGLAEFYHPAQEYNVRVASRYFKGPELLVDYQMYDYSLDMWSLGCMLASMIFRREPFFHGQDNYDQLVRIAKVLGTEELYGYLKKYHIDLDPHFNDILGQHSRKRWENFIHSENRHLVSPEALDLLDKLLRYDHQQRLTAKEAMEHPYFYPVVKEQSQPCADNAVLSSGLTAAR
Chain of STE20-like serine/threonine-protein kinase (Homo sapiens) (Q9H2G2 whole entry, looked up): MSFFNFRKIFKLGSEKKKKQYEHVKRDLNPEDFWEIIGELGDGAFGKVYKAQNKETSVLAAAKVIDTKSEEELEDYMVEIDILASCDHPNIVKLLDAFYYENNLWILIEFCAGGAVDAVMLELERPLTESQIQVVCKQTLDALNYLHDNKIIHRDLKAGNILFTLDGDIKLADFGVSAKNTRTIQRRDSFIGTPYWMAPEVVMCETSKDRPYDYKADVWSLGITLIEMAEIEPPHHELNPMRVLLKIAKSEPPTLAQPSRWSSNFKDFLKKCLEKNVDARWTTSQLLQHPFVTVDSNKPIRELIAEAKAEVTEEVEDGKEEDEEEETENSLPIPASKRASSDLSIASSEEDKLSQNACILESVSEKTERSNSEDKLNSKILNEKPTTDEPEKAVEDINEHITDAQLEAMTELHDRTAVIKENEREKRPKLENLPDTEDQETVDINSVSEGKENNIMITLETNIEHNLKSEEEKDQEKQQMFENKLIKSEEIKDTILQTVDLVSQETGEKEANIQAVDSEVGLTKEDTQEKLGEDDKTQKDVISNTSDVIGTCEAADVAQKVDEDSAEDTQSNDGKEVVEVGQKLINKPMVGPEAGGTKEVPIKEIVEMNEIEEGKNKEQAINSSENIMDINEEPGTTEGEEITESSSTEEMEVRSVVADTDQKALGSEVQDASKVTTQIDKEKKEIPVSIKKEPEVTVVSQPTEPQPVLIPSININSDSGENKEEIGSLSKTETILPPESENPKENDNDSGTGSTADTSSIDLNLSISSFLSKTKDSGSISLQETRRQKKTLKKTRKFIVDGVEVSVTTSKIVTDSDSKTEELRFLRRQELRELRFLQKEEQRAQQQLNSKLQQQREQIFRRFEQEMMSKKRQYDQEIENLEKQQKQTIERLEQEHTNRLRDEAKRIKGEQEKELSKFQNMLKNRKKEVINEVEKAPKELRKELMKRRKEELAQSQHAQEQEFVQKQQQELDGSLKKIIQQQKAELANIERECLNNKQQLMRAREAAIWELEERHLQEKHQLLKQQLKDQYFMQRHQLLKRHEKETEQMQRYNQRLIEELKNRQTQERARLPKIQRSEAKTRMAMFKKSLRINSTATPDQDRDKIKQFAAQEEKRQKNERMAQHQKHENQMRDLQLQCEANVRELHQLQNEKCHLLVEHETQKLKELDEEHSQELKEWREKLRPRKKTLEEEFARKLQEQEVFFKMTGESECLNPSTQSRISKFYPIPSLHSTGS
Chain of Ephrin type-A receptor 5 (Homo sapiens) (P54756 whole entry): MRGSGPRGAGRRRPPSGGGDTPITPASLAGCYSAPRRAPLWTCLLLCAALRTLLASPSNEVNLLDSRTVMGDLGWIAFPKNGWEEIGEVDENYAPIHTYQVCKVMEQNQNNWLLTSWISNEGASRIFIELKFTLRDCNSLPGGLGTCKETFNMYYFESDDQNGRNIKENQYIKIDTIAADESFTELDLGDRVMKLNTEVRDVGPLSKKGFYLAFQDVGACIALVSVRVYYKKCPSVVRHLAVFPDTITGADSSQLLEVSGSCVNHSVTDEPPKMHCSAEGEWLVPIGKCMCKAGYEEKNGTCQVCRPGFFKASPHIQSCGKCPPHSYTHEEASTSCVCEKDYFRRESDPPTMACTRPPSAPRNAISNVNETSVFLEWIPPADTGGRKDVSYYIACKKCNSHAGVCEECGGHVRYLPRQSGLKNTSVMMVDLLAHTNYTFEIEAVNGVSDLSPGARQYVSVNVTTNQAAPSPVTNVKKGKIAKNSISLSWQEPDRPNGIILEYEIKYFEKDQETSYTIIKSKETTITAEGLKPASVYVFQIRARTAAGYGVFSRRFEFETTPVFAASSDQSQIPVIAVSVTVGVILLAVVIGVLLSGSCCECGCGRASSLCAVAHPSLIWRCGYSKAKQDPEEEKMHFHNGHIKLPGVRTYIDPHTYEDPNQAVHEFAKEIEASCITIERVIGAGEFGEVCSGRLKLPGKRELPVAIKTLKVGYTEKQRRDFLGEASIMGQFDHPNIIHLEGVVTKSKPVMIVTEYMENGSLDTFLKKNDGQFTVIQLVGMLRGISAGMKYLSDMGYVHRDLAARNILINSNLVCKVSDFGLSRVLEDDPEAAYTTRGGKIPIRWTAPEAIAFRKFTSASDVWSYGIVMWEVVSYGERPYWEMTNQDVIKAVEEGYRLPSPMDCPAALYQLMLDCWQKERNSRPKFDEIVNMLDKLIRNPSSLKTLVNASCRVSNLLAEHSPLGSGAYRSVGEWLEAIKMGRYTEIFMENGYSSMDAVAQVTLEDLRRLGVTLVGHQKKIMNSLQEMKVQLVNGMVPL

As a reminder, the inhibition is the relative decrease from the control value, in per cent. For `C[C@]1(O)C[C@@H](c2nc(-c3ccc4ccc(-c5ccccc5)nc4c3)c3c(N)nccn32)C1`, the inhibition in test [1] is -5.11%; in [2] it was -6.22%; in test [3], 7.34%.

Turning to `Oc1n[nH]c2nnc(-c3c(-c4ccccc4)nn4ccccc34)cc12`, in test [4], the inhibition was -0.46%.

Regarding `C[C@@]1(C(=O)Nc2ccc(F)nc2)CCCN1c1nc(Nc2cc(C3CC3)n[nH]2)c2cccn2n1`, the inhibition is 11.7% in test [5]; 8.06% in test [6]; -1.69% in test [7]; 3.41% in [8]; -6.12% in test [9]; -8.94% in test [10]. For the same compound, the inhibition in test [11] is 15.4%; in test [12], -5.57%.
